Measurements reported in BigSolDB 2.1.

OC(Cn1cncn1)(Cn1cncn1)c1ccc(F)cc1F
solubility (mole fraction) (in ethanol, 293.15 K): 0.0105 | solubility (mole fraction) (in ethanol, 298.15 K): 0.0123 | solubility (mole fraction) (in ethanol, 303.15 K): 0.014 | solubility (mole fraction) (in ethanol, 308.15 K): 0.0157 | solubility (mole fraction) (in ethanol, 313.15 K): 0.0183 | solubility (mole fraction) (in ethanol, 318.15 K): 0.023 | solubility (mole fraction) (in ethanol, 323.15 K): 0.0282 | solubility (mole fraction) (in water, 293.15 K): 7.76e-05 | solubility (mole fraction) (in water, 298.15 K): 7.99e-05 | solubility (mole fraction) (in water, 303.15 K): 8.28e-05 | solubility (mole fraction) (in water, 308.15 K): 8.58e-05 | solubility (mole fraction) (in water, 313.15 K): 9.06e-05 | solubility (mole fraction) (in water, 318.15 K): 9.59e-05 | solubility (mole fraction) (in water, 323.15 K): 0.000104
